# Data: patent publication US20210069145A1, “COMPOSITIONS AND METHODS FOR REDUCING A FATTY ACID DESATURATION INDEX IN A SUBJECT IN NEED THEREOF” (Amarin Pharmaceuticals Ireland Limited, priority 2013, published 2021)
# System: Lipoprotein Particle Concentrations
# Test: Lipoprotein particle concentrations, 12-week double-blind placebo-controlled study of >96% E-EPA in statin-treated patients
# Assay type: in vivo, human
# Conditions: 12 weeks; for IDL, Change From Baseline, % / IDL, End of Treatment / Large HDL, Change From Baseline, % / Large HDL, End of Treatment / Large LDL, Change From Baseline, % / Large LDL, End of Treatment / Large VLDL, Change From Baseline, % / Large VLDL, End of Treatment / Medium HDL, Change From Baseline, % / Medium HDL, End of Treatment / Medium VLDL, Change From Baseline, % / Medium VLDL, End of Treatment / Small HDL, Change From Baseline, % / Small HDL, End of Treatment / Small LDL, Change From Baseline, % / Small LDL, End of Treatment / Small VLDL, Change From Baseline, % / Small VLDL, End of Treatment / Total HDL, Change From Baseline, % / Total HDL, End of Treatment / Total LDL, Change From Baseline, % / Total LDL, End of Treatment / Total VLDL, Change From Baseline, % / Total VLDL, End of Treatment: median
# Method: A multi-center, placebo-controlled, randomized, double-blind, 12-week study was performed to evaluate the efficacy and safety of >96% E-EPA in patients with fasting triglyceride levels ≥200 mg/dl and <500 mg/dl despite statin therapy (the mean of two qualifying entry values needed to be ≥185 mg/dl and at least one of the values needed to be ≥200 mg/dl). The primary objective of the study was to determine the efficacy of >96% E-EPA 2 g daily and 4 g daily, compared to placebo, in lowering fasting TG levels in patients with high risk for cardiovascular disease and with fasting TG levels ≥200 mg/dl and <500 mg/dl, despite treatment to LDL-C goal on statin therapy.
# The population for this study was men and women >18 years of age with a body mass index ≤45 kg/m^2 with fasting TG levels greater than or equal to 200 mg/dl and less than 500 mg/dl and on a stable does of statin therapy (with or without ezetimibe). The statin was atorvostatin, rosuvastatin or simvastatin. The dose of statin must have been stable for ≥4 weeks prior to the LDL-C/TG baseline qualifying measurement for randomization. The statin dose was optimized such that the patients are at their LDL-C goal at the LDL-C/TG baseline qualifying measurements. The same statin at the same dose was continued until the study ended.
# Approximately 702 patients were randomized at approximately 80 centers in the U.S. The study was a 18- to 20-week, Phase 3, multi-center study consisting of 2 study periods: (1) A 6- to 8-week screening period that included a diet and lifestyle stabilization, a non-statin lipid-altering treatment washout, and an LDL-C and TG qualifying period and (2) A 12-week, double-blind, randomized, placebo-controlled treatment period.
# After confirmation of qualifying fasting LDL-C and TG values, eligible patients entered a 12-week, randomized, double-blind treatment period. At Visit 4 (Week 0), patients were randomly assigned to 1 of the following treatment groups: • >96% E-EPA 2 g daily, • >96% E-EPA 4 g daily, or • Placebo.
# During the double-blind treatment period, patients were to take 2 capsules (>96% E-EPA or matching placebo) in the morning and 2 capsules in the evening for a total of 4 capsules per day. • Patients in the >96% E-EPA 2 g/day treatment group received 1>96% E-EPA 1 g capsule and 1 matching placebo capsule in the morning and in the evening. • Patients in the >96% E-EPA 4 g/day treatment group received 2>96% E-EPA 1 g capsules in the morning and evening.
# The primary efficacy variable for the double-blind treatment period was percent change in TG from baseline to Week 12 endpoint. The secondary efficacy variables for the double-blind treatment period included the following: • Percent changes in total cholesterol (TC), high-density lipoprotein cholesterol (HDL-C), LDL-C, calculated non-HDL-C, and very low-density lipoprotein cholesterol (VLDL-C) from baseline to Week 12 endpoint; • Percent change in very low-density lipoprotein TG from baseline to Week 12; • Percent changes in apolipoprotein A-I (apo A-I), apolipoprotein B (apo B), and apo A-I/apo B ratio from baseline to Week 12; • Percent changes in lipoprotein(a) from baseline to Week 12; • Percent changes in LDL particle number and size, measured by nuclear magnetic resonance, from baseline to Week 12; • Percent change in remnant-like particle cholesterol from baseline to Week 12; • Percent change in oxidized LDL from baseline to Week 12; • Changes in FPG and HbA1c from baseline to Week 12; • Change in insulin resistance, as assessed by the homeostasis model index insulin resistance, from baseline to Week 12; • Percent change in lipoprotein associated phospholipase A2 (Lp-PLA2) from baseline to Week 12; • Change in intracellular adhesion molecule-1 from baseline to Week 12; • Change in interleukin-2 from baseline to Week 12; • Change in plasminogen activator inhibitor-1 from baseline to Week 12. […]
# [1] = 2 g/day, placebo-adjusted Hodges-Lehmann median
# [2] = 4 g/day, placebo-adjusted Hodges-Lehmann median
# [3] = 4 g/day, placebo-adjusted Hodges-Lehmann median, listed as Ethyl Eicosapentaenoate
# [4] = 4 g/day, placebo-adjusted Hodges-Lehmann median, listed as IPE
smiles,measurement,setting,value
"CC/C=C\C/C=C\C/C=C\C/C=C\C/C=C\CCCC(=O)OCC [ethyl eicosapentaenoate, all-cis eicosa-5,8,11,14,17-pentaenoic acid ethyl ester]","IDL, Change From Baseline, %","2 g/day, n = 222",10.5%
same,"IDL, End of Treatment","2 g/day, n = 222",63.5 nmol/L
same,"Large HDL, Change From Baseline, %","2 g/day, n = 222",−4.0%
same,"Large HDL, End of Treatment","2 g/day, n = 222",2.4 µmol/L
same,"Large LDL, Change From Baseline, %","2 g/day, n = 222",47.7%
same,"Large LDL, End of Treatment","2 g/day, n = 222",202.0 nmol/L
same,"Large VLDL, Change From Baseline, %","2 g/day, n = 222",−19.7%
same,"Large VLDL, End of Treatment","2 g/day, n = 222",10.0 nmol/L
same,"Medium HDL, Change From Baseline, %","2 g/day, n = 222",2.9%
same,"Medium HDL, End of Treatment","2 g/day, n = 222",7.2 µmol/L
same,"Medium VLDL, Change From Baseline, %","2 g/day, n = 222",7.9%
same,"Medium VLDL, End of Treatment","2 g/day, n = 222",59.6 nmol/L
same,"Small HDL, Change From Baseline, %","2 g/day, n = 222",−0.6%
same,"Small HDL, End of Treatment","2 g/day, n = 222",23.8 µmol/L
same,"Small LDL, Change From Baseline, %","2 g/day, n = 222",−4.3%
same,"Small LDL, End of Treatment","2 g/day, n = 222",920.5 nmol/L
same,"Small VLDL, Change From Baseline, %","2 g/day, n = 222",22.1%
same,"Small VLDL, End of Treatment","2 g/day, n = 222",49.6 nmol/L
same,"Total HDL, Change From Baseline, %","2 g/day, n = 222",0.7%
same,"Total HDL, End of Treatment","2 g/day, n = 222",34.7 µmol/L
same,"Total LDL, Change From Baseline, %","2 g/day, n = 222",4.7%
same,"Total LDL, End of Treatment","2 g/day, n = 222",1215 nmol/L
same,"Total VLDL, Change From Baseline, %","2 g/day, n = 222",12.0%
same,"Total VLDL, End of Treatment","2 g/day, n = 222",122.4 nmol/L
same,"IDL, Median Change From Baseline IPE 2 g/day vs Placebo, %",[1],8.6%
same,"Large HDL, Median Change From Baseline IPE 2 g/day vs Placebo, %",[1],−13.5%
same,"Large LDL, Median Change From Baseline IPE 2 g/day vs Placebo, %",[1],26.5%
same,"Large VLDL, Median Change From Baseline IPE 2 g/day vs Placebo, %",[1],−24.2%
same,"Medium HDL, Median Change From Baseline IPE 2 g/day vs Placebo, %",[1],−4.5%
same,"Medium VLDL, Median Change From Baseline IPE 2 g/day vs Placebo, %",[1],2.6%
same,"Small HDL, Median Change From Baseline IPE 2 g/day vs Placebo, %",[1],−0.2%
same,"Small LDL, Median Change From Baseline IPE 2 g/day vs Placebo, %",[1],−14.7%
same,"Small VLDL, Median Change From Baseline IPE 2 g/day vs Placebo, %",[1],16.5%
same,"Total HDL, Median Change From Baseline IPE 2 g/day vs Placebo, %",[1],−3.1%
same,"Total LDL, Median Change From Baseline IPE 2 g/day vs Placebo, %",[1],−7.5%
same,"Total VLDL, Median Change From Baseline IPE 2 g/day vs Placebo, %",[1],1.8%
same,reduction of median concentration of small LDL particles over baseline when adjusted for placebo control,4 g per day,13.5%
same,reduction of median concentration of total HDL over baseline when adjusted for placebo,4 g per day,7.4%
same,reduction of median concentration of total LDL over baseline when adjusted for placebo,4 g per day,7.7%
same,reduction of median concentration of total VLDL over baseline when adjusted for placebo,4 g per day,12.2%
same,"IDL, Change From Baseline, %","4 g/day, n = 216",23.7%
same,"IDL, End of Treatment","4 g/day, n = 216",63.0 nmol/L
same,"Large HDL, Change From Baseline, %","4 g/day, n = 216",−21.6%
same,"Large HDL, End of Treatment","4 g/day, n = 216",1.9 µmol/L
same,"Large LDL, Change From Baseline, %","4 g/day, n = 216",55.2%
same,"Large LDL, End of Treatment","4 g/day, n = 216",172.5 nmol/L
same,"Large VLDL, Change From Baseline, %","4 g/day, n = 216",−41.9%
same,"Large VLDL, End of Treatment","4 g/day, n = 216",7.7 nmol/L
same,"Medium HDL, Change From Baseline, %","4 g/day, n = 216",4.2%
same,"Medium HDL, End of Treatment","4 g/day, n = 216",6.9 µmol/L
same,"Medium VLDL, Change From Baseline, %","4 g/day, n = 216",−6.9%
same,"Medium VLDL, End of Treatment","4 g/day, n = 216",49.7 nmol/L
same,"Small HDL, Change From Baseline, %","4 g/day, n = 216",−3.9%
same,"Small HDL, End of Treatment","4 g/day, n = 216",23.1 µmol/L
same,"Small LDL, Change From Baseline, %","4 g/day, n = 216",−1.1%
same,"Small LDL, End of Treatment","4 g/day, n = 216",902.5 nmol/L
same,"Small VLDL, Change From Baseline, %","4 g/day, n = 216",8.3%
same,"Small VLDL, End of Treatment","4 g/day, n = 216",46.8 nmol/L
same,"Total HDL, Change From Baseline, %","4 g/day, n = 216",−4.0%
same,"Total HDL, End of Treatment","4 g/day, n = 216",32.6 µmol/L
same,"Total LDL, Change From Baseline, %","4 g/day, n = 216",3.8%
same,"Total LDL, End of Treatment","4 g/day, n = 216",1191 nmol/L
same,"Total VLDL, Change From Baseline, %","4 g/day, n = 216",−2.5%
same,"Total VLDL, End of Treatment","4 g/day, n = 216",110.0 nmol/L
same,"IDL, Median Change From Baseline IPE 4 g/day vs Placebo, %",[2],10.0%
same,"Large HDL, Median Change From Baseline IPE 4 g/day vs Placebo, %",[2],significantly reduced
same,"Large LDL, Median Change From Baseline IPE 4 g/day vs Placebo, %",[2],increased
same,"Large VLDL, Median Change From Baseline IPE 4 g/day vs Placebo, %",[2],significantly reduced
same,"Medium HDL, Median Change From Baseline IPE 4 g/day vs Placebo, %",[2],−6.5%
same,"Medium VLDL, Median Change From Baseline IPE 4 g/day vs Placebo, %",[2],significantly reduced
same,"Small HDL, Median Change From Baseline IPE 4 g/day vs Placebo, %",[2],−2.8%
same,"Small LDL, Median Change From Baseline IPE 4 g/day vs Placebo, %",[2],significantly reduced
same,"Small VLDL, Median Change From Baseline IPE 4 g/day vs Placebo, %",[2],2.8%
same,"Total HDL, Median Change From Baseline IPE 4 g/day vs Placebo, %",[2],significantly reduced
same,"Total LDL, Median Change From Baseline IPE 4 g/day vs Placebo, %",[2],significantly reduced
same,"Total VLDL, Median Change From Baseline IPE 4 g/day vs Placebo, %",[2],significantly reduced
same,"Small LDL, Median Change From Baseline IPE 4 g/day vs Placebo, %",[3],−13.5%
same,"Total HDL, Median Change From Baseline IPE 4 g/day vs Placebo, %",[3],−7.4%
same,"Total LDL, Median Change From Baseline IPE 4 g/day vs Placebo, %",[3],−7.7%
same,"Total VLDL, Median Change From Baseline IPE 4 g/day vs Placebo, %",[3],−12.2%
same,"Large HDL, Median Change From Baseline IPE 4 g/day vs Placebo, %",[4],−31.0%
same,"Large LDL, Median Change From Baseline IPE 4 g/day vs Placebo, %",[4],34.2%
same,"Large VLDL, Median Change From Baseline IPE 4 g/day vs Placebo, %",[4],−46.4%
same,"Medium VLDL, Median Change From Baseline IPE 4 g/day vs Placebo, %",[4],−12.1%
same,"Small LDL, Median Change From Baseline IPE 4 g/day vs Placebo, %",[4],−13.5%
same,"Total HDL, Median Change From Baseline IPE 4 g/day vs Placebo, %",[4],−7.4%
same,"Total LDL, Median Change From Baseline IPE 4 g/day vs Placebo, %",[4],−7.7%
same,"Total VLDL, Median Change From Baseline IPE 4 g/day vs Placebo, %",[4],−12.2%
